Results taken from patent US10750729B2, “Pig for atrioventricular block model, monkey for atrioventricular block model, guinea pig for atrioventricular block model, and use thereof” (Toho University, priority 2012, dated 2020).

How the values were obtained:
rat = conditions: cited from earlier work
Guinea pigs (Hartley) = test: Test Example 3-2: electrocardiogram and aortic pressure of halothane-anesthetized guinea pigs (BAF312); format: in vivo; conditions: guinea pig
Protocol: Guinea pigs (Hartley, body weight: 420 g to 650 g, male, obtained from Japan SLC, Inc.) were each anesthetized by intraperitoneally administering thereto sodium thiopental (product of Mitsubishi Tanabe Pharma Corporation) at 50 mg/kg. Next, a tracheal cannula was inserted into each of the guinea pigs. While their body temperature was being maintained at 37° C. with a warming pad, the guinea pigs were allowed to inhale 100% by volume oxygen and 1% by volume vaporized halothane (product of Takeda Pharmaceutical Company Limited.) using an artificial respirator for experimental animals (SN-480-7; product of shimano Co., Ltd.). Here, the artificial respirator for experimental animals was set to a tidal volume of 10 mL/kg and a respiration rate of 60 strokes/min. Next, a cannula for drug administration was inserted to their left femoral vein. In addition, a heparinized catheter for monitoring the blood pressure was inserted to the aorta through the left femoral […]. Then, ECG standard limb II leads was continuously recorded.
Each of the guinea pigs (n=12) of Example 3 was recorded for an electrocardiogram before administration of a drug or a solvent.
BAF312 (product of Meiji Seika Pharma Co., Ltd.) was dissolved in dimethyl sulfoxide (hereinafter may be referred to as “DMSO”; product of Sigma-Aldrich Inc.) so as to have a concentration of 0.003 mg/mL.
(§1) After the evaluation of base control, the cannula for drug administration was inserted, and the above-prepared BAF312 solution was intravenously administered to each of the guinea pigs (n=4) of Example 3 for 10 min at a dose of 0.001 mg/kg. These guinea pigs were evaluated for parameters by the following evaluation methods at 5 min, 10 min, 15 min, 20 min, 30 min, 45 min or 60 min after the administration of the BAF312 solution.
BAF312 (product of Meiji Seika Pharma Co., Ltd.) was dissolved in DMSO (product of Sigma-Aldrich Inc.) so as to have a concentration of 0.03 mg/mL.
as §1, with “0.01” for “0.001”
The aortic pressure and the electrocardiogram were monitored using a polygraph system (RM-6000, product of NIHON KOHDEN Co. Ltd.) and analyzed with a full-automated analysis system in real time (WinVAS ver. 3, 1.1R03; product of Physio-Tech Co., Ltd).
Parameters of the electrocardiogram were measured three times, and the obtained values were averaged. Atrial rate was calculated from PP interval of the electrocardiogram. Ventricular rate was calculated from RR interval of the electrocardiogram.
The measurements in FIGS. 6A to 6E are expressed as mean±SE (n=4). The difference between the parameters was evaluated with one-way repeated measures analysis of variance (ANOVA). It was considered that p<0.05 is statistically significant. In FIG. 6A to 6C and FIG. 6E, “white circle,” “white square” and “white triangle” each mean absence of a significant difference relative to the value of the evaluation of base control (C), and “black circle” means presence of a significant difference relative to the value of the evaluation of base control (C).
Also, in FIG. 6D, “white circle” means absence of development of atrioventricular block or presence of development of first-degree atrioventricular block, “white triangle” means presence of development of advanced atrioventricular block, “x-mark” means presence of development of third-degree atrioventricular block (complete atrioventricular block), and #1 to 4 refer to each individual.

[1] = high-dose 0.01 mg/kg/10 min i.v.
[2] = low-dose 0.001 mg/kg/10 min i.v.
[3] = low-dose 0.001 mg/kg/10 min i.v., from 5 min to 60 min

change in QRS width (Guinea pigs (Hartley); [1])	change in atrial rate (Guinea pigs (Hartley); [1])	change in PR interval (Guinea pigs (Hartley); high-dose 0.01 mg/kg/10 min i.v., before development of atrioventricular block)	change in ventricular rate (Guinea pigs (Hartley); high-dose 0.01 mg/kg/10 min i.v., from 10 min to 15 min)	individuals that developed complete atrioventricular block (Guinea pigs (Hartley); high-dose 0.01 mg/kg/10 min i.v., n=4)	change in PR interval (Guinea pigs (Hartley); [2])	change in QRS width (Guinea pigs (Hartley); [2])	change in atrial rate (Guinea pigs (Hartley); [3])	change in ventricular rate (Guinea pigs (Hartley); [3])	Structure (SMILES)	prolongation of PR interval (rat)	change in QT interval (Guinea pigs (Hartley); [1])	change in blood pressure (MBP) (Guinea pigs (Hartley); [1])	correspondence of P wave and R wave in the electrocardiogram (Guinea pigs (Hartley); high-dose 0.01 mg/kg/10 min i.v., 45 min after start)	change in QT interval (Guinea pigs (Hartley); [2])	change in blood pressure (MBP) (Guinea pigs (Hartley); [2])
–	–	–	–	–	–	–	–	–	CCCCCCCCCCCCC/C=C/[C@@H](O)[C@@H](N)COP(=O)(O)O [sphingosine-1-phosphate]	not observed	–	–	–	–	–
no significant change	no significant change	prolonged	decrease	all of the four individuals	prolongation of PR interval was observed	no significant change	decrease	decrease	CCc1cc(/C(C)=N/OCc2ccc(C3CCCCC3)c(C(F)(F)F)c2)ccc1CN1CC(C(=O)O)C1 [BAF312, siponimod]	–	no significant change	increase	the atrium and the ventricle are contracted independently of each other at their own individual rhythms	no significant change	increase
